Experimental data as given in the supplement of paper PMC10307832.

How the values were obtained:
Assay in all cases: relative viability (nuclei count vs DMSO), 5 days (fraction); higher = more cells survive
[1] = compound: O=C(CCCCCCNC(=O)c1cnc(N(c2ccccc2)c2ccccc2)nc1)NO [Ricolinostat] + C[C@@H](Oc1cc(-c2cnn(C3CCNCC3)c2)cnc1N)c1c(Cl)ccc(F)c1Cl [Crizotinib] (partner 1 µM)
Procedure, shortened: (§1)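 Cells from lung cancer lines were seeded into 1536-well plates and, one day later, dosed by pin tool. Treatments were either a single drug or a fixed dose of an anchor drug with five library-drug doses (not always all listed) in √10 steps. After 5 days, nuclei were stained in a one-step fixation (final 0.05% Triton X-100, 1% formaldehyde, 1 ug/ml Hoechst) and counted on 4× images, and relative viability is the treated-to-vehicle nuclei ratio, as the median of duplicate plates.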

[2] = compound: O=C(CCCCCCNC(=O)c1cnc(N(c2ccccc2)c2ccccc2)nc1)NO [Ricolinostat] + Cc1cc(Nc2cc(N3CCN(C)CC3)nc(Sc3ccc(NC(=O)C4CC4)cc3)n2)n[nH]1 [Tozasertib] (partner 0.1 µM)
Procedure, shortened: as §1

Ricolinostat + Foretinib = compound: O=C(CCCCCCNC(=O)c1cnc(N(c2ccccc2)c2ccccc2)nc1)NO [Ricolinostat] + COc1cc2c(Oc3ccc(NC(=O)C4(C(=O)Nc5ccc(F)cc5)CC4)cc3F)ccnc2cc1OCCCN1CCOCC1 [Foretinib] (partner 0.25 µM)
Procedure, shortened: as §1

Ricolinostat + Alpelisib = compound: O=C(CCCCCCNC(=O)c1cnc(N(c2ccccc2)c2ccccc2)nc1)NO [Ricolinostat] + Cc1nc(NC(=O)N2CCC[C@H]2C(N)=O)sc1-c1ccnc(C(C)(C)C(F)(F)F)c1 [Alpelisib] (partner 2 µM)
Procedure, shortened: as §1

Ricolinostat + OSI-027 = compound: O=C(CCCCCCNC(=O)c1cnc(N(c2ccccc2)c2ccccc2)nc1)NO [Ricolinostat] + COc1cccc2cc(-c3nc([C@H]4CC[C@H](C(=O)O)CC4)n4ncnc(N)c34)[nH]c12 [OSI-027] (partner 0.5 µM)
Procedure, shortened: as §1

| Cell Line | relative viability ([1]; first compound 0.08 µM) | relative viability ([1]; first compound 0.253 µM) | relative viability ([1]; first compound 0.8 µM) | relative viability ([1]; first compound 2.53 µM) | relative viability ([2]; first compound 0.253 µM) | relative viability ([2]; first compound 0.8 µM) | relative viability ([2]; first compound 2.53 µM) | relative viability (Ricolinostat + Foretinib; first compound 0.08 µM) | relative viability (Ricolinostat + Foretinib; first compound 0.253 µM) | relative viability (Ricolinostat + Foretinib; first compound 0.8 µM) | relative viability (Ricolinostat + Foretinib; first compound 2.53 µM) | relative viability (Ricolinostat + Alpelisib; first compound 0.08 µM) | relative viability (Ricolinostat + Alpelisib; first compound 0.253 µM) | relative viability (Ricolinostat + Alpelisib; first compound 0.8 µM) | relative viability (Ricolinostat + Alpelisib; first compound 2.53 µM) | relative viability (Ricolinostat + OSI-027; first compound 0.253 µM) | relative viability (Ricolinostat + OSI-027; first compound 0.8 µM) | relative viability (Ricolinostat + OSI-027; first compound 2.53 µM) | relative viability ([2]; first compound 0.08 µM) | relative viability (Ricolinostat + OSI-027; first compound 0.08 µM) |
| --- | --- | --- | --- | --- | --- | --- | --- | --- | --- | --- | --- | --- | --- | --- | --- | --- | --- | --- | --- | --- |
| NCI-H3122 | 0.219 | 0.307 | 0.326 | 0.336 | 0.361 | 0.382 | 0.295 | 0.98 | 0.959 | 1.08 | 1.13 | 0.514 | 0.942 | 0.785 | 0.964 | 0.992 | 0.99 | 1.06 | – | – |
| HCC-15 | 0.775 | 0.801 | 0.799 | 0.84 | 0.35 | 0.233 | 0.233 | 0.876 | 1.03 | 1.05 | 1.05 | 0.753 | 0.875 | 0.834 | 0.894 | 0.64 | 0.624 | 0.592 | 0.349 | 0.501 |
| NCI-H2009 | 1.02 | 1.04 | 0.938 | 0.888 | 0.686 | 0.68 | 0.607 | 1.16 | 1.19 | 1.2 | 1.05 | 1.13 | 1.11 | 1.12 | 0.923 | 0.565 | 0.553 | 0.567 | 0.745 | 0.447 |
| NCI-H23 | 0.534 | 0.565 | 0.665 | 0.445 | 0.321 | 0.393 | 0.254 | 0.999 | 0.898 | 0.97 | 1.13 | 0.56 | 0.644 | 0.882 | 0.703 | 0.571 | 0.578 | 0.465 | 0.399 | 0.496 |
| NCI-H1623 | – | – | – | – | 0.462 | 0.477 | 0.424 | 0.795 | 0.9 | 0.825 | 0.739 | – | – | – | – | 0.428 | 0.414 | 0.312 | 0.489 | 0.389 |
| NCI-H1734 | 0.561 | 0.792 | 0.706 | 0.581 | 0.29 | 0.231 | 0.292 | 0.728 | 0.85 | 0.915 | 0.926 | 0.469 | 0.684 | 0.645 | 0.721 | 0.673 | 0.632 | 0.617 | 0.241 | 0.473 |
| NCI-H2170 | 1.16 | 1.17 | 1.16 | 1.23 | 0.61 | 0.622 | 0.723 | 0.915 | 0.973 | 0.983 | 1.01 | 0.687 | 0.764 | 0.862 | 0.934 | 0.718 | 0.725 | 0.891 | 0.758 | 0.656 |
| NCI-H2342 | – | – | – | – | 0.461 | 0.401 | 0.426 | 0.88 | 0.975 | 1.19 | 1.07 | – | – | – | – | 0.588 | 0.575 | 0.633 | 0.496 | 0.515 |
| HCC-366 | 0.49 | 0.464 | 0.428 | 0.188 | 0.0847 | 0.0896 | 0.0599 | 0.915 | 0.837 | 0.975 | 0.817 | 0.223 | 0.407 | 0.398 | 0.433 | 1.05 | 0.842 | 0.523 | 0.241 | 0.809 |
